According to patent US6265537A, “Thiodepsipeptides for combating endoparasites and a method for producing the same” (Bayer Aktiengesellschaft, priority 1997, dated 2001):

Assays:
Haemonchus contortus = experiment: In vivo nematode test Haemonchus contortus/sheep; conditions: sheep infected with Haemonchus contortus; applied orally and/or intravenously as pure active compound; complete cessation of worm egg excretion with the faeces after treatment
Method: Haemonchus contortus/Sheep Sheep which had been experimentally infected with Haemonchus contortus were treated after the prepotency time of the parasite had elapsed. The active compounds were applied orally and/or intravenously as pure active compound. The degree of effectiveness is determined by quantitatively counting the worm eggs which have been excreted with the faeces before and after the treatment. A complete cessation of egg excretion after the treatment means that the worms have been aborted or damaged to such an extent that they no longer produce eggs (dosis […]). Active compounds tested and effective dosage rates can be seen from the table which follows

Heterakis spumosa = experiment: In vivo nematode test Heterakis spumosa/mouse; conditions: mice infected with Heterakis spumosa; dosage rate 50 mg/kg, applied orally and/or intraperitoneally on day 46 after infection; adult parasites in colon and caecum counted on day 54, compared with untreated control
From the text: Mice are experimentally infected with nematodes of the variety Heterakis spumosa. In order to infect the mice, 90 embryonate Heterakis spumosa eggs are applied orally.
After the prepotency time had elapsed, the suspended active compounds are applied orally and/or intraperitoneally on the 46th day after the infection.
The mice are selected on the 54th day after the infection. The adult parasites in the colon and caecum are counted with the aid of a microscope. The treatment results in the doses group are compared with the untreated control group.
Active compounds tested and effective dosage rates (dosis effectiva) can be seen from the table which follows.

Molecule | Effective dosage rates in [mg/kg] (dosis effectiva) (Haemonchus contortus) | Reduction rate in [%] (Heterakis spumosa)
CC(C)CC1C(=O)OC(Cc2ccc(N3CCOCC3)cc2)C(=O)N(C)C(CC(C)C)C(=O)OC(C)C(=O)N(C)C(CC(C)C)C(=O)OC(Cc2ccc(N3CCOCC3)cc2)C(=O)N(C)C(CC(C)C)C(=O)OC(C)C(=O)N1C [Cyclo(-MeLeu-D-Lac-MeLeu-D-4-MorPhLac-)2, cyclo(-N-methyl-L-leucyl-D-lactyl-N-methyl-L-leucyl-D-4-N-morpholino-phenyllactyl-N-methyl-L-leucyl-D-lactyl-N-methyl-L-leucyl-D-4-N-morpholinophenyllactyl-), reference compound] | 0.05 | 
CC(C)C[C@H]1C(=O)O[C@H](Cc2ccccc2)C(=O)N(C)[C@@H](CC(C)C)C(=O)O[C@H](C)C(=O)N(C)[C@@H](CC(C)C)C(=O)O[C@H](Cc2ccccc2)C(=O)N(C)[C@@H](CC(C)C)C(=O)O[C@H](C)C(=O)N1C [PF 1022A, cyclo(-N-methyl-L-leucyl-D-lactyl-N-methyl-L-leucyl-D-phenyllactyl-N-methyl-L-leucyl-D-lactyl-N-methyl-L-leucyl-D-phenyllactyl-), reference compound] | 0.25 | 0
Cyclo(-N-methyl-L-leucyl-D-thiolactyl-N-melhyl-L-leucyl-D-4-N-morpholinophenylthiiolactyl-N-methyl-L-leucyl-D-thiolactyl-N-methyl-L-leucyl-D-4-N-morpholinophenylthiolactyl-) [Example 3] | 0.025 | 
Cyclo(-N-methyl-L-leucyl-D-thiolactyl-N-methyl-L-leucy-D-4-(pyrid-2-yl-methoxy)-phenylthiolactyl-N-methyl-L-leucy-D-thiolactyl-N-methyl-L-leucyl-D-4-(pyrid-2-yl-methoxy)-phenylthiolactyl-) [Example 6] | 0.01 | 
Cyclo(-N-methyl-L-leucyl-D-thiolactyl-N-methyl-L-leucyl-D-4-(pyrid-2-yl-methoxy)-phenyllactyl-N-methyl-L-keucyl-D-lactyl-N-methyl-L-leucyl-D-4-(pyrid- 2-yl-methoxy)-phenyllactyl-) [Example 10] | 0.01 | 
Cyclo(-N-methyl-L-leucyl-D-thiolactyl-N-methyl-L-leucyl-D-phenylthiolactyl- N-methyl-L-leucyl-D-thiolactyl-N-methyl-L-leucyl-D-phenylthiolactyl-) [Example 1] | 0.10 | 100
Cyclo(N-methyl-L-leucyl-D-thiolactyl-N-methyl-L-leucyl-D4-fur-2-yl-methoxy)-phenyllactyl-N-methyl-L-leucyl-D-lactyl-N-methyl-L-leucyl-D-phenyllactyl-) [Example 12] | 0.01 | 
Cyclo(N-methyl-L-leucyl-D-thiolactyl-N-methyl-L-leucyl-D-4-N-morpholinophenyllactyl-N-methyl-L-leucyl-D-lactyl-N-methyl-L-leucyl-D-4-N-morpholinophenyllactyl-) [Example 8] | 0.01 | 
Cyclo(N-methyl-L-leucyl-D-thiolactyl-N-methyl-L-leucyl-D-phenyllactyl-N-methyl-L-leucyl-D-lactyl-N-methyl-L-leucyl-D-phenyllactyl-) [Example 7] | 0.01 | 
